This experiment deals with T1, human liver FBPase (Homo sapiens, UniProt P09467).
T1 construct: made in house; host or cells: E. coli
T1 sequence (P09467 2-338 limits assumed): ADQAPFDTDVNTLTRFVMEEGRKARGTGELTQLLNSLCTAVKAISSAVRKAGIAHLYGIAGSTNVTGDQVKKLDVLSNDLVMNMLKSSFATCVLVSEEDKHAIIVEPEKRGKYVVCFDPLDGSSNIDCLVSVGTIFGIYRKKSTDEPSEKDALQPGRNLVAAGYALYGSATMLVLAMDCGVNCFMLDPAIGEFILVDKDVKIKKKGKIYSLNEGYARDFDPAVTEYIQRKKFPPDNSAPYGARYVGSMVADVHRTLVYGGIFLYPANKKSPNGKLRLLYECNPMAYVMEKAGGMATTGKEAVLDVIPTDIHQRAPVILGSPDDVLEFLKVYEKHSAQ
The experiment in a line: FBPase assay (malachite green phosphate release). The note with it: recombinant human liver FBPase, 50 μM fructose-1,6-bisphosphate. In kind it is biochemical. In outline: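 Recombinant human liver FBPase (E. coli-expressed, heat-treated, purified) reacted with 50 μM fructose-1,6-bisphosphate in pH 7.2 HEPES, 2 mM MgCl2, 1% DMSO, 50 min at room temperature. Released phosphate quantified with malachite green/ammonium molybdate reagent at 620 nm.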

As to `COCCc1sc(S(=O)(=O)NC(=O)Nc2cc(C(N)=O)cc(N)n2)cc1C` [Compound 102, 2-Amino-6-[({[5-(2-methoxyethyl)-4-methyl-2-thienyl]sulfonyl}carbamoyl)amino]isonicotinamide], the IC50 (commonly the point on the concentration scale where inhibition reaches its midpoint) came to 42000 nM.

For `CNC(=O)Nc1cc(C(=O)NC)cc(NC(=O)NS(=O)(=O)c2cc(C)c(CCOC)s2)n1` [Compound 103, 2-[({[5-(2-Methoxyethyl)-4-methyl-2-thienyl]sulfonyl}carbamoyl)amino]-N-methyl-6-[(methylcarbamoyl)amino]isonicotinamide], the IC50 was determined as 5700 nM.

On to `CNC(=O)c1cc(N)nc(NC(=O)NS(=O)(=O)c2cc(C)c(CCOC)s2)c1` [Compound 104, 2-Amino-6-[({[5-(2-methoxyethyl)-4-methyl-2-thienyl]sulfonyl}carbamoyl)amino]-N-methylisonicotinamide], for which the IC50 was greater than 100000 nM.

In the case of `COC(=O)c1cc(C(F)(F)F)cc(NC(=O)NS(=O)(=O)c2cc(C)c(CCO)s2)n1` [Compound 105, Methyl-6-[({[5-(2-hydroxyethyl)-4-methyl-2-thienyl]sulfonyl}carbamoyl)amino]-4-(trifluoromethyl)pyridine-2-carboxylate], the IC50 came out at 2610 nM.

As for `Cc1cc(S(=O)(=O)NC(=O)Nc2cc(C(F)(F)F)cc(CO)n2)sc1CCO` [Compound 106, 5-(2-Hydroxyethyl)-N-{[6-(hydroxymethyl)-4-(trifluoromethyl)pyridin-2-yl]carbamoyl}-4-methylthiophene-2-sulfonamide], the IC50 was found to be 1500 nM.

`CNC(=O)Nc1cc(C(N)=NO)cc(NC(=O)NS(=O)(=O)c2cc(C)c(CCOC)s2)n1` [Compound 107, N′-Hydroxy-2-[({[5-(2-methoxyethyl)-4-methyl-2-thienyl]sulfonyl}carbamoyl)amino]-6-[(methylcarbamoyl)amino]pyridine-4-carboximidamide]: the IC50 was determined as 2550 nM.

On to `COCCc1sc(S(=O)(=O)NC(=O)Nc2cc(C(N)=NO)cc(N)n2)cc1C` [Compound 108, 2-Amino-N′-hydroxy-6-[({[5-(2-methoxyethyl)-4-methyl-2-thienyl]sulfonyl}carbamoyl)amino]pyridine-4-carboximidamide], for which the IC50 is 16000 nM.

For `CNC(=O)Nc1cc(-c2noc(C)n2)cc(NC(=O)NS(=O)(=O)c2cc(C)c(CCOC)s2)n1` [Compound 109, 5-(2-Methoxyethyl)-4-methyl-N-({6-[(methylcarbamoyl)amino]-4-(5-methyl-1,2,4-oxadiazol-3-yl)pyridin-2-yl}carbamoyl)thiophene-2-sulfonamide], the IC50 stood at 1870 nM.

As to `COCCc1sc(S(=O)(=O)NC(=O)Nc2cc(-c3noc(C)n3)cc(N)n2)cc1C` [Compound 110, N-{[6-Amino-4-(5-methyl-1,2,4-oxadiazol-3-yl)pyridin-2-yl]carbamoyl}-5-(2-methoxyethyl)-4-methylthiophene-2-sulfonamide], the IC50 is 16400 nM.

Take `CC(=O)OCCc1sc(S(=O)(=O)NC(=O)Nc2cc(C(F)(F)F)cc(C)n2)cc1C` [Compound 111, 2-{3-methyl-5-[({[6-methyl-4-(trifluoromethyl)pyridin-2-yl]carbamoyl}amino)sulfonyl]-2-thienyl}ethyl acetate]: the IC50 came out at 345 nM.

With `COCCc1sc(S(=O)(=O)NC(=O)Nc2cc(SC)cc(C(N)=O)n2)cc1C` [Compound 112, 6-[({[5-(2-Methoxyethyl)-4-methyl-2-thienyl]sulfonyl}carbamoyl)amino]-4-(methylthio)pyridine-2-carboxamide], the half-maximal inhibitory concentration (IC50) stood at 800 nM.

For the molecule `CNC(=O)c1cc(SC)cc(NC(=O)NS(=O)(=O)c2cc(C)c(CCOC)s2)n1` [Compound 113, 6-[({[5-(2-Methoxyethyl)-4-methyl-2-thienyl]sulfonyl}carbamoyl)amino]-N-methyl-4-(methylthio)pyridine-2-carboxamide], the IC50 stood at 840 nM.

Regarding `Cc1cc(C(F)(F)F)cc(NC(=O)NS(=O)(=O)c2cc(C)c(CCO)s2)n1` [Compound 114, 5-(2-Hydroxyethyl)-4-methyl-N-{[6-methyl-4-(trifluoromethyl)pyridin-2-yl]carbamoyl}thiophene-2-sulfonamide], the IC50 amounted to 515 nM.

In the case of `COCCc1sc(S(=O)(=O)NC(=O)Nc2cc(SC)cc(C(N)=NO)n2)cc1C` [Compound 115, N′-Hydroxy-6-[({[5-(2-methoxyethyl)-4-methyl-2-thienyl]sulfonyl}carbamoyl)amino]-4-(methylthio)pyridine-2-carboximidamide], the IC50 was 2780 nM.

With `COCCc1sc(S(=O)(=O)NC(=O)Nc2cc(OC)cc(-c3noc(C)n3)n2)cc1C` [Compound 116], the IC50 came to 1480 nM.

`COCCc1sc(S(=O)(=O)NC(=O)Nc2cc(SC)cc(-c3noc(C)n3)n2)cc1C` [Compound 117, 5-(2-methoxyethyl)-4-methyl-N-{[6-(5-methyl-1,2,4-oxadiazol-3-yl)-4-(methylthio)pyridin-2-yl]carbamoyl}thiophene-2-sulfonamide]: the IC50 was 1630 nM.

Take `COCCc1sc(S(=O)(=O)NC(=O)Nc2cc(OC)cc(C(=O)OC)n2)cc1C` [Compound 118, Methyl-6-[({[5-(2-methoxyethyl)-4-methyl-2-thienyl]sulfonyl}carbamoyl)amino]-4-(methoxy)pyridine-2-carboxylate]: the half-inhibitory concentration (IC50) is 2300 nM.

Regarding `COCCc1sc(S(=O)(=O)NC(=O)Nc2cc(OC)cc(C(N)=O)n2)cc1C` [Compound 119, 6-[({[5-(2-Methoxyethyl)-4-methyl-2-thienyl]sulfonyl}carbamoyl)amino]-4-(methoxy)pyridine-2-carboxamide], the IC50 turned out to be 4800 nM.

With `Cc1cc(C(F)(F)F)cc(NC(=O)NS(=O)(=O)c2csc(C)c2)n1` [Compound 120, 5-Methyl-N-{[6-methyl-4-(trifluoromethyl)pyridin-2-yl]carbamoyl}thiophene-3-sulfonamide], the IC50 was determined as 831 nM.

As to `Cc1cc(C(F)(F)F)cc(NC(=O)NS(=O)(=O)c2ccc(C)s2)n1` [Compound 121, 5-Methyl-N-{[6-methyl-4-(trifluoromethyl)pyridin-2-yl]carbamoyl}thiophene-2-sulfonamide], the IC50 came to 1170 nM.

Consider `Cc1csc(S(=O)(=O)NC(=O)Nc2cc(C(F)(F)F)cc(C)n2)c1` [Compound 122, 4-Methyl-N-{[6-methyl-4-(trifluoromethyl)pyridin-2-yl]carbamoyl}thiophene-2-sulfonamide], for which the half-inhibitory concentration (IC50) is 730 nM.
